Test results as given in patent US20220296518A1, “LIPID-BASED NANOPARTICLE DELIVERY SYSTEM FOR HYDROPHILIC CHARGED COMPOUND” (National Taiwan University, priority 2021, published 2022).
Values after ≈ are worked out from the molar mass of the structure shown.

What was measured:
colon-26 carcinoma tumor = experiment: In vivo therapeutic efficacy in colon-26 carcinoma tumor-bearing mice; parameters: species or system BALB/c mice; conditions: end of the experiment; 5 mg/kg of dox via tail vein, once per week
Method: C26 […] cancer cell line was implanted into the backs of BALB/c mice to create colon-26 carcinoma tumor-bearing mice. When the tumor grew to 100 mm^3, LNP 1 of the present invention containing dox was injected via mice's vein located in the tail at a dosage of 5 mg/kg of dox, once per week. At predetermined time periods 1, 2, 5, 7, 9, 12, 14, 19, 21, 22 days, tumor volume was determined by Vernier caliper. The experiment continued until either mouse death or the tumor size exceeding 2,500 mm^3.

[1] = In vitro drug release by dialysis at pH 7.4 (PBS) and pH 5.4 (citrate buffer), 37° C.; type: physicochemical
Source text: The “normalized release” is defined as release ratio in pH 5.4 environment divided by release ratio in pH 7.4 environment wherein the release ratio is defined as the percentage of API released from LNP. A high normalized release is a result of high release ratio in pH 5.4 environment as compared to the release ratio in pH 7.4 environment. Since tumor sites present acidic environment, a high normalized release is a metric indicating tumor targeting capability of an LNP. During experiments, PBS buffer was used to simulate a physiological environment at pH of 7.4, while citrate buffer was used to simulate a tumor microenvironment at pH of 5.4, wherein the citrate buffer contains sodium citrate dehydrate and citric acid and its pH can be adjusted using NaOH and HCl. The in vitro API release was evaluated in these two different solutions using the following steps: 1 mg/mL LNP-dox solution in PBS buffer was prepared by diluting LNP-dox using PBS buffer. The solution was placed into a 1 mL/5 cm dialysis tube (Float-A-lyzer), in which the pore size is 100 kDa. The tube was placed into a beaker containing 150 mL dialysis buffer. The beaker was then placed into a 37° C. water bath. Samples of 1 mL solution were taken from the beaker at 0, 0.5, 1, 2, 4, 8, 26, and 31 hour(s). The API content in the samples was analyzed using UV-Vis spectrophotometer such as […]. […]

Staphylococcus aureus = experiment: In vitro antibacterial susceptibility, Staphylococcus aureus; type: cell-based; conditions: 10^5 CFU, about 24 hour, about 37° C.
Method: FIG. 8 illustrates in vitro Staphylococcus aureus antibacterial susceptibility to LNP 1 of the present invention encapsulating doxycycline as compared to free form doxycycline both at MIC 0.4 mcg/ml.
(§1) Free form doxycycline and LNP 1 of the present invention containing doxy were separately applied to Staphylococcus aureus bacteria as well as methicillin-resistant Staphylococcus aureus at 10^5 CFU, incubation with LNP for about 24 hour at about 37° C.

[2] = test system: methicillin-resistant Staphylococcus aureus; experiment: In vitro antibacterial susceptibility, methicillin-resistant Staphylococcus aureus; type: cell-based; conditions: 10^5 CFU, about 24 hour, about 37° C.
Method: FIG. 9 illustrates in vitro methicillin-resistant Staphylococcus aureus antibacterial susceptibility to LNP 1 of the present invention encapsulating doxycycline as compared to free form doxycycline both at MIC 0.4 mcg/ml.
as §1

MIC (Staphylococcus aureus) [µg/mL] | MIC [2] [µg/mL] | Compound | mice that died or had tumor size of over 2500 mm^3 (colon-26 carcinoma tumor) [%] | normalized release (release ratio at pH 5.4 / release ratio at pH 7.4) ([1]; 37° C., dialysis, up to 31 hours) | release rate (in words) ([1]; pH 7.4 and pH 5.4, 37° C., FIG. 6)
– | – | COc1cccc2c1C(=O)c1c(O)c3c(c(O)c1C2=O)C[C@@](O)(C(=O)CO)C[C@@H]3O[C@H]1C[C@H](N)[C@H](O)[C@H](C)O1 [free form dox, doxorubicin] | 40 | about 1 | released the fastest of the three
0.4 (≈ 0.9 µM) | 0.4 (≈ 0.9 µM) | C[C@H]1c2cccc(O)c2C(=O)C2=C(O)[C@]3(O)C(=O)C(C(N)=O)=C(O)[C@@H](N(C)C)[C@@H]3[C@@H](O)[C@@H]21 [free form doxycycline, doxycycline] | – | – | –
